Results taken from patent US20230011571A1, “SMALL MOLECULE FURIN INHIBITORS FOR TREATING INFECTIOUS DISEASES” (BP Asset V, Inc., priority 2019, published 2023).

What was measured:
Format in all cases: cell-based
[1] = test system: Chikungunya virus (CHIKV); assay: microbe, parasite or virus in culture; settings: Chikungunya virus, Vero, 48 h, read-out: Percent viral inhibition CHKV
dengue virus (DENV) = assay: microbe, parasite or virus in culture; settings: Dengue virus, Vero, 120 h, read-out: Percent viral inhibition DENY
Marburg virus (MARV) = assay: organism not typed; settings: Vero, 72 h, read-out: Percent viral inhibition MARV

In the case of `CN1CCCN(c2ncc(Oc3cc(CN4CCC(OCC(=O)O)CC4)cc(-c4cc(Cl)cc(Cl)c4)n3)cn2)CC1` [Example 140, 2-((1-((2-(3,5-dichlorophenyl)-6-((2-(4-methyl-1,4-diazepan-1-yl)pyrimidin-5-yl)oxy)pyridin-4-yl)methyl)piperidin-4-yl)oxy)acetic acid], the inhibition at 1 µM [1] is reported as 32.7%, the inhibition at 1 µM (dengue virus (DENV)) is reported as 14.1% and the inhibition at 1 µM (Marburg virus (MARV)) is reported as 51.5%.
For `C[C@]1(O)C[C@@H](N2CCN(c3ncc(Oc4cc(CN5CCC(CC(=O)O)CC5)cc(-c5cc(Cl)cc(Cl)c5)n4)cn3)CC2)C1` [Example 24, 2-(1-((2-(3,5-dichlorophenyl)-6-((2-(4-((1s,3s)-3-hydroxy-3-methylcyclobutyl)piperazin-1-yl)pyrimidin-5-yl)oxy)pyridin-4-yl)methyl)piperidin-4-yl)acetic acid], the inhibition at 1 µM [1] was 34.6%, the inhibition at 1 µM (dengue virus (DENV)) was 25.8% and the inhibition at 1 µM (Marburg virus (MARV)) was 63.1%.
With `COC(=O)NCC1CCN(Cc2cc(Oc3cnc(N4CCN(C)CC4)cn3)nc(-c3cc(Cl)cc(Cl)c3)c2)CC1` [Example 395, methyl((1-((2-(3,5-dichlorophenyl)-6-((5-(4-methylpiperazin-1-yl)pyrazin-2-yl)oxy)pyridin-4-yl)methyl)piperidin-4-yl)methyl)carbamate] the inhibition at 1 µM [1] was 0%, the inhibition at 1 µM (dengue virus (DENV)) was 88.2% and the inhibition at 1 µM (Marburg virus (MARV)) was 37.2%.
`O=C(O)CC1CCN(Cc2cc(Oc3cnc(N4CC5CC(C4)N5)nc3)nc(-c3cc(Cl)cc(Cl)c3)c2)CC1` [Example 162, 2-(1-((2-((2-(3,6-diazabicyclo[3.1.1]heptan-3-yl)pyrimidin-5-yl)oxy)-6-(3,5-dichlorophenyl)pyridin-4-yl)methyl)piperidin-4-yl) acetic acid] gave an inhibition at 1 µM [1] of 30.8%, an inhibition at 1 µM (dengue virus (DENV)) of 41.4% and an inhibition at 1 µM (Marburg virus (MARV)) of 72.8%.
`CNC(=O)NCC1CCN(Cc2cc(Oc3cnc(N4CCN(C(C)CCS(C)(=O)=O)CC4)nc3)nc(-c3cc(F)cc(Cl)c3)c2)CC1` (stereo not drawn) [Example 373, 1-((1-((2-(3-chloro-5-fluorophenyl)-6-((2-(4-(4-(methylsulfonyl)butan-2-yl)piperazin-1-yl)pyrimidin-5-yl)oxy)pyridin-4-yl)methyl)piperidin-4-yl)methyl)-3-methylurea] gave an inhibition at 1 µM [1] of 28.8%, an inhibition at 1 µM (dengue virus (DENV)) of 53.4% and an inhibition at 1 µM (Marburg virus (MARV)) of 67.8%.
With `CS(=O)(=O)CCCN1CCN(c2cnc(Oc3cc(CN4CCC(CC(=O)O)CC4)cc(-c4cc(Cl)cc(Cl)c4)n3)cn2)CC1` [Example 354, 2-(1-((2-(3,5-dichlorophenyl)-6-((5-(4-(3-(methylsulfonyl)propyl)piperazin-1-yl)pyrazin-2-yl)oxy)pyridin-4-yl)methyl)piperidin-4-yl)acetic acid] the inhibition at 1 µM [1] was 17.2%, the inhibition at 1 µM (dengue virus (DENV)) was 40.8% and the inhibition at 1 µM (Marburg virus (MARV)) was 45.2%.
`C[C@@H](O)CN1CCN(c2ncc(Oc3cc(CN4CCC(CC(=O)O)CC4)cc(-c4cc(Cl)cc(Cl)c4)n3)cn2)CC1` [Example 298, (R)-2-(1-((2-(3,5-dichlorophenyl)-6-((2-(4-(2-hydroxypropyl)piperazin-1-yl)pyrimidin-5-yl)oxy)pyridin-4-yl)methyl)piperidin-4-yl)acetic acid] was tested, and the inhibition at 1 µM [1] was 20.7%, the inhibition at 1 µM (dengue virus (DENV)) was 57% and the inhibition at 1 µM (Marburg virus (MARV)) was 55.1%.
With `CC(=O)NCC1CCN(Cc2cc(Oc3cnc(N4CCN(CCC(=O)O)CC4)nc3)nc(-c3cc(Cl)cc(Cl)c3)c2)CC1` [Example 263, 3-(4-(5-((4-((4-(acetamidomethyl)piperidin-1-yl)methyl)-6-(3,5-dichlorophenyl)pyridin-2-yl)oxy)pyrimidin-2-yl)piperazin-1-yl)propanoic acid] the inhibition at 1 µM [1] was 28.9%, the inhibition at 1 µM (dengue virus (DENV)) was 39.7% and the inhibition at 1 µM (Marburg virus (MARV)) was 48.5%.
For `O=C(O)CC1CCN(Cc2cc(Oc3cnc(N4CCN(CC5(O)CC5)CC4)nc3)nc(-c3cc(Cl)cc(Cl)c3)c2)CC1` [Example 229, 2-(1-((2-(3,5-dichlorophenyl)-6-((2-(4-((1-hydroxycyclopropyl)methyl)piperazin-1-yl)pyrimidin-5-yl)oxy)pyridin-4-yl)methyl)piperidin-4-yl)acetic acid], the inhibition at 1 µM [1] was 43.2%, the inhibition at 1 µM (dengue virus (DENV)) was 54.8% and the inhibition at 1 µM (Marburg virus (MARV)) was 23.7%.
With `CC(=O)NCC1CCN(Cc2cc(Oc3cnc(N4CCN(CCCS(N)(=O)=O)CC4)nc3)nc(-c3cc(Cl)cc(Cl)c3)c2)CC1` [Example 253, N-((1-((2-(3,5-dichlorophenyl)-6-((2-(4-(3-sulfamoylpropyl)piperazin-1-yl)pyrimidin-5-yl)oxy)pyridin-4-yl)methyl)piperidin-4-yl)methyl)acetamide] the inhibition at 1 µM [1] was 36.1%, the inhibition at 1 µM (dengue virus (DENV)) was 27.3% and the inhibition at 1 µM (Marburg virus (MARV)) was 52.1%.
For `C[C@H]1CN(c2ncc(Oc3cc(CN4CCC(CC(=O)O)CC4)cc(-c4cc(Cl)cc(Cl)c4)n3)cn2)CCN1` [Example 159, (S)-2-(1-((2-(3,5-dichlorophenyl)-6-((2-(3-methylpiperazin-1-yl)pyrimidin-5-yl)oxy)pyridin-4-yl)methyl)piperidin-4-yl)acetic acid], the inhibition at 1 µM [1] was 22.9%, the inhibition at 1 µM (dengue virus (DENV)) was 17.5% and the inhibition at 1 µM (Marburg virus (MARV)) was 49.8%.
With `COC(=O)CCN1CCN(c2ccc(Oc3cc(CN4CCC(CNC(C)=O)CC4)cc(-c4cc(Cl)cc(Cl)c4)n3)cn2)CC1` [Example 385, methyl3-(4-(5-((4-((4-(acetamidomethyl)piperidin-1-yl)methyl)-6-(3,5-dichlorophenyl)pyridin-2-yl)oxy)pyridin-2-yl)piperazin-1-yl)propanoate] the inhibition at 1 µM [1] was 14.9%, the inhibition at 1 µM (dengue virus (DENV)) was 48.5% and the inhibition at 1 µM (Marburg virus (MARV)) was 56.7%.
`CNC(=O)NCC1CCN(Cc2cc(Oc3cnc(N4CCN(C[C@@H](C)O)CC4)nc3)nc(-c3cc(Cl)cc(Cl)c3)c2)CC1` [Example 310, (R)-1-((1-((2-(3,5-dichlorophenyl)-6-((2-(4-(2-hydroxypropyl)piperazin-1-yl)pyrimidin-5-yl)oxy)pyridin-4-yl)methyl)piperidin-4-yl)methyl)-3-methylurea] gave an inhibition at 1 µM [1] of 2.85%, an inhibition at 1 µM (dengue virus (DENV)) of 19.3% and an inhibition at 1 µM (Marburg virus (MARV)) of 18%.
In the case of `CC(=O)NCC1CCN(Cc2cc(Oc3cnc(N4CCNCC4)cn3)nc(-c3cc(Cl)cc(Cl)c3)c2)CC1` [Example 109, N-((1-((2-(3,5-dichlorophenyl)-6-((5-(piperazin-1-yl)pyrazin-2-yl)oxy)pyridin-4-yl)methyl)piperidin-4-yl)methyl)acetamide], the inhibition at 1 µM [1] is reported as 7.33%, the inhibition at 1 µM (dengue virus (DENV)) is reported as 0% and the inhibition at 1 µM (Marburg virus (MARV)) is reported as 32.9%.
Work on `CC(=O)NCC1CCN(Cc2cc(Oc3cnc(N4CCN(CCS(C)(=O)=O)CC4)nc3)nc(-c3cc(Cl)cc(Cl)c3)c2)CC1` [Example 285, N-((1-((2-(3,5-dichlorophenyl)-6-((2-(4-(2-(methylsulfonyl)ethyl)piperazin-1-yl)pyrimidin-5-yl)oxy)pyridin-4-yl)methyl)piperidin-4-yl)methyl)acetamide] yielded an inhibition at 1 µM [1] of 35.3%, an inhibition at 1 µM (dengue virus (DENV)) of 22.9% and an inhibition at 1 µM (Marburg virus (MARV)) of 80.4%.
`O=C(O)CCC1CCN(Cc2cc(Oc3cnc(N4CCN(CCO)CC4)nc3)cc(-c3cc(Cl)cc(Cl)c3)c2)CC1` [Example 114, 3-(1-((3′,5′-dichloro-5-((2-(4-(2-hydroxyethyl)piperazin-1-yl)pyrimidin-5-yl)oxy)-[1,1′-biphenyl]-3-yl)methyl)piperidin-4-yl)propanoic acid] gave an inhibition at 1 µM [1] of 26.6%, an inhibition at 1 µM (dengue virus (DENV)) of 38.1% and an inhibition at 1 µM (Marburg virus (MARV)) of 74.2%.
